In paper PMC11111404, “Discovery of potent small-molecule inhibitors of lipoprotein(a) formation” (Nature, 2024):
Values joined by “and” are separate entries in the source; they are usually repeats but may differ in a detail not shown here. Equal entries are not always repeated.

Key:
[1] = test system: Lp(a); assay: Lp(a) levels in cynomolgus monkeys; assay type: in vivo, cynomolgus monkey (Macaca fascicularis); parameters: key to Mean_pCFB_vs_Veh / Mean_pCFB_vs_Veh (Lp(a)): % change from pre-dose, treated group compared with vehicle; key to Mean_pCFB / Mean_pCFB (Lp(a)): % change in Lp(a) from before dosing; Lp(a): unit not given here; settings: for Mean_pCFB_vs_Veh (Lp(a)) / Mean_pCFB (Lp(a)) / Lp(a) / pCFB (Lp(a) pct_chng_from_baseline): cynomolgus monkey; for Mean_pCFB_vs_Veh (Lp(a)): difference vs vehicle; for Mean_pCFB (Lp(a)): group mean; for Lp(a) / pCFB (Lp(a) pct_chng_from_baseline): individual animals
Method: Female or male Chinese Macaca fascicularis cynomolgus monkeys (as described in the figure legends) of unspecified ages with body weight ranging from 2.0 kg to 5.0 kg were housed in cages with a standard light cycle (12-h light, 12-h dark) at room temperature (20–26 °C); the relative humidity ranged from 30% to 70%. Monkeys were given fruits, vegetables or dietary enrichment as a form of environmental enrichment, and various cage enrichment devices. Purina Lab diet 5048C was provided BID and individual monkeys were identified by cage card. The monkeys were randomized to treatment groups by body weight and baseline plasma Lp(a) concentration, as determined by a commercially available Randox assay (Randox LP2757), using a BRAT for the study. In an example cynomolgus monkey study in which 39 monkeys were prescreened for baseline Lp(a) levels, the average Lp(a) level was 350 ± 57 µg ml^−1 (range 53–1,667 µg ml^−1). Monkeys were dosed orally with vehicle (purified water) or compounds QD or BID for 14 days, at dose levels and frequencies as previously described for each compound. Plasma samples were collected on days before dosing to establish baseline Lp(a) and after the morning dose during the study. Lp(a) levels were measured by an investigator who was blinded to group allocation using the Randox assay, and were quantified relative to the calibrator series (Randox LP3404). Data were analysed in GraphPad Prism v.9.5.1. The Lp(a) percentage change from before dosing in non-human primates was analysed by repeated measures ANOVA in SAS v.9.4 (SAS). At each time point, the Lp(a) percentage change for each treated group was compared with vehicle by the Bonferroni method.

[2] = biological target: T1, apo(a) KIV2 (Homo sapiens, UniProt P08519); assay: ITC binding to apo(a) KIV2
T1 construct: made in house
T1 sequence (P08519 141-219 limits assumed): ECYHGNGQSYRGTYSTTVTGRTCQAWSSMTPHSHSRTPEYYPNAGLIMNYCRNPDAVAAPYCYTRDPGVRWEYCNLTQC
Method: The nucleotide sequence encoding the human LPA gene (NP_005568.2) was inserted into a mammalian expression vector containing a cytomegalovirus promoter. Protein expression was performed by transient transfection of human embryonic kidney 293 (HEK293) cells cultured in serum-free medium. The culture medium was collected five days after transfection and human apo(a) protein was purified using L-lysine affinity chromatography. Nucleotide sequences encoding various KIV domains of human apo(a) and human and rat plasminogen were inserted into a pET21a Escherichia coli expression vector. Bacterial BL21(DE3) was used as the expression host, and the induction of protein expression was performed in 2× TY medium with 1 mM isopropyl β-D-1-thiogalactopyranoside at 37 °C for 5 h. Cells were collected and stored at –80 °C for subsequent protein purification and refolding. The frozen cell pellets were lysed and inclusion bodies were purified. The protein refolding was performed using the rapid-dilution method, and the refolded proteins were further purified by size-exclusion chromatography. All protein concentrations were determined by A280.
Experiments were performed on a MicroCal Auto-iTC200 titration calorimeter (Malvern Panalytical), with a cell volume of 200 μl and a 40-μl microsyringe. Experiments were performed at 25 °C while stirring at 750 rpm in ITC buffer (50 mM phosphate buffer at pH 8.0). The microsyringe was loaded with a solution of the respective compounds, with the concentration measured by quantitative nuclear magnetic resonance, and was inserted into the calorimetric cell prefilled with the respective recombinant proteins of known concentration in ITC buffer. The system was equilibrated to 25 °C and an extra delay of 60 s was applied. The first titrations were performed using an initial control injection of 0.5 μl, followed by 18 identical injections of 2 μl, with a duration of 4 s per injection and 150-s intervals between injections. The second titration was performed over the first titration without cleaning the cell and was carried out with continuous injections as an automation method in a MicroCal Auto-iTC200. The second titrations were performed using 19 identical injections of 2 μl, with a duration of 4 s per injection and 150-s injection intervals. The data were corrected for ligand heats of dilution and were deconvoluted using MicroCal PEAQ-ITC Analysis Software to yield the enthalpy of binding (ΔH) and the binding constant (K). Thermodynamic parameters were calculated using the basic equation of thermodynamics (ΔG = ΔH – TΔS = –RTlnKd), where ΔG, ΔH and ΔS are the changes in free energy, enthalpy and entropy of binding, respectively; Kd is the equilibrium dissociation constant; T is the absolute temperature (kelvins); and R is the gas constant (1.987 cal mol^−1 K^−^1). A single-binding-site model was used in MicroCal PEAQ-ITC Analysis Software v.0.9.

[3] = Pharmacokinetics in monkey plasma after oral dosing; assay type: in vivo; settings: Chinese cynomolgus

Kd ([2]; ITC): 3900 nM
Fold-difference (KIV2:KIV8) ([2]; ratio of ITC Kd values KIV2:KIV8): 177
Cmax ([3]; oral 1 mg/kg, day 15): 911 ± 225 nM
AUC(0-t) ([3]; oral 1 mg/kg, day 15, read-out: AUC(0-96 hr)): 35.8 µM·h
Tmax ([3]; oral 10 mg/kg, day 15): 30 min
Cmax ([3]; oral 100 mg/kg, day 15): 4850 nM
Compound: O=C(O)[C@@H](Cc1cccc(CN(Cc2cccc(C[C@H](C(=O)O)[C@H]3CCNC3)c2)Cc2cccc(C[C@H](C(=O)O)[C@H]3CCNC3)c2)c1)[C@H]1CCNC1 [LY3473329]
Mean_pCFB_vs_Veh (Lp(a)) ([1]; 1mpk, D01): 4.27
Mean_pCFB_vs_Veh (Lp(a)) ([1]; 1mpk, D03): -6.51
Mean_pCFB_vs_Veh (Lp(a)) ([1]; 1mpk, D05): -6.39
Mean_pCFB_vs_Veh (Lp(a)) ([1]; 1mpk, D09): -13.72
Mean_pCFB_vs_Veh (Lp(a)) ([1]; 1mpk, D14): -22.18
Mean_pCFB_vs_Veh (Lp(a)) ([1]; 10mpk, D01): 3.91
Mean_pCFB_vs_Veh (Lp(a)) ([1]; 10mpk, D03): -29.92
Mean_pCFB_vs_Veh (Lp(a)) ([1]; 10mpk, D05): -32.94
Mean_pCFB_vs_Veh (Lp(a)) ([1]; 10mpk, D09): -36.99
Mean_pCFB_vs_Veh (Lp(a)) ([1]; 10mpk, D14): -48.11
Mean_pCFB_vs_Veh (Lp(a)) ([1]; 100mpk, D01): -15.98
Mean_pCFB_vs_Veh (Lp(a)) ([1]; 100mpk, D03): -38.35
Mean_pCFB_vs_Veh (Lp(a)) ([1]; 100mpk, D05): -32.35
Mean_pCFB_vs_Veh (Lp(a)) ([1]; 100mpk, D09): -50.18
Mean_pCFB_vs_Veh (Lp(a)) ([1]; 100mpk, D14): -61.77
Mean_pCFB (Lp(a)) ([1]; 1mpk, D01): -0.85
Mean_pCFB (Lp(a)) ([1]; 1mpk, D03): -12.33
Mean_pCFB (Lp(a)) ([1]; 1mpk, D05): -14.05
Mean_pCFB (Lp(a)) ([1]; 1mpk, D09): -21.85
Mean_pCFB (Lp(a)) ([1]; 1mpk, D14): -34.04
Mean_pCFB (Lp(a)) ([1]; 10mpk, D01): -1.2
Mean_pCFB (Lp(a)) ([1]; 10mpk, D03): -35.74
Mean_pCFB (Lp(a)) ([1]; 10mpk, D05): -40.6
Mean_pCFB (Lp(a)) ([1]; 10mpk, D09): -45.13
Mean_pCFB (Lp(a)) ([1]; 10mpk, D14): -59.97
Mean_pCFB (Lp(a)) ([1]; 100mpk, D01): -21.09
Mean_pCFB (Lp(a)) ([1]; 100mpk, D03): -44.17
Mean_pCFB (Lp(a)) ([1]; 100mpk, D05): -40.01
Mean_pCFB (Lp(a)) ([1]; 100mpk, D09): -58.32
Mean_pCFB (Lp(a)) ([1]; 100mpk, D14): -73.62
Lp(a) ([1]; 1mpk group, Day 1, Pre dose (baseline), 1 mg/kg): 115.019 and 15.737 and 53.63 and 67.735 and 63.938
Lp(a) ([1]; 1mpk, Day 1, 4hr, 1 mg/kg): 97.491 and 117.597 and 16.395 and 53.808 and 66.137 and 65.184
pCFB (Lp(a) pct_chng_from_baseline) ([1]; 1mpk, Day 1, 1 mg/kg): -11.4161 and 2.241 and 4.181 and 0.3319 and -2.359 and 1.949
Lp(a) ([1]; 1mpk, Day 3, 4hr, 1 mg/kg): 91.721 and 112.368 and 11.704 and 47.474 and 63.489 and 56.499
pCFB (Lp(a) pct_chng_from_baseline) ([1]; 1mpk, Day 3, 1 mg/kg): -16.6589 and -2.305 and -25.6275 and -11.4787 and -6.269 and -11.6347
Lp(a) ([1]; 1mpk, Day 5, 4hr, 1 mg/kg): 85.692 and 109.155 and 11.192 and 45.131 and 70.165 and 53.752
pCFB (Lp(a) pct_chng_from_baseline) ([1]; 1mpk, Day 5, 1 mg/kg): -22.1371 and -5.098 and -28.881 and -15.8475 and 3.588 and -15.9311
Lp(a) ([1]; 1mpk, Day 9, 4hr, 1 mg/kg): 81.717 and 123.954 and 9.293 and 31.114 and 64.385
pCFB (Lp(a) pct_chng_from_baseline) ([1]; 1mpk, Day 9, 1 mg/kg): -25.7489 and 7.768 and -40.9481 and -41.984 and -4.946 and -25.2635
pCFB (Lp(a) pct_chng_from_baseline) ([1]; 1mpk, Day 14, 1 mg/kg): -43.1939 and -2.975 and -53.0914 and -46.914 and -15.7924 and -42.2472
Lp(a) ([1]; 10mpk group, Day 1, Pre dose (baseline), 10 mg/kg): 63.144 and 63.676 and 112.151 and 49.481 and 65.725 and 30.09
pCFB (Lp(a) pct_chng_from_baseline) ([1]; 10mpk, Day 1, 10 mg/kg): -0.54 and 5.215 and -3.008 and -7.112 and -1.928 and 0.1728
pCFB (Lp(a) pct_chng_from_baseline) ([1]; 10mpk, Day 3, 10 mg/kg): -40.1463 and -31.9398 and -31.5575 and -28.9606 and -53.8653 and -27.9495
Lp(a) ([1]; 10mpk, Day 5, 4hr, 10 mg/kg): 69.663 and 26.971 and 31.738 and 21.72
pCFB (Lp(a) pct_chng_from_baseline) ([1]; 10mpk, Day 5, 10 mg/kg): -39.4923 and -41.2165 and -37.8846 and -45.4922 and -51.7109 and -27.8166
Lp(a) ([1]; 10mpk, Day 9, 4hr, 10 mg/kg): 37.879 and 46.471 and 59.699 and 19.275 and 28.08 and 18.466
pCFB (Lp(a) pct_chng_from_baseline) ([1]; 10mpk, Day 9, 10 mg/kg): -40.0117 and -27.0196 and -46.7691 and -61.0457 and -57.2765 and -38.6308
Lp(a) ([1]; 10mpk, Day 14, 4hr, 10 mg/kg): 27.525 and 31.412 and 53.912 and 14.404 and 16.367 and 13.601
pCFB (Lp(a) pct_chng_from_baseline) ([1]; 10mpk, Day 14, 10 mg/kg): -56.4092 and -50.669 and -51.9291 and -70.8898 and -75.0978 and -54.7989
Lp(a) ([1]; 100mpk group, Day 1, Pre dose (baseline), 100 mg/kg): 63.503 and 134.003 and 31.483 and 50.567 and 61.834
Lp(a) ([1]; 100mpk, Day 1, 4hr, 100 mg/kg): 57.552 and 102.207 and 18.95 and 36.698 and 61.471
pCFB (Lp(a) pct_chng_from_baseline) ([1]; 100mpk, Day 1, 100 mg/kg): -39.8088 and -27.427 and -0.5871 and -9.371 and -23.7278
Lp(a) ([1]; 100mpk, Day 3, 4hr, 100 mg/kg): 37.977 and 67.885 and 16.507 and 23.074 and 46.465
pCFB (Lp(a) pct_chng_from_baseline) ([1]; 100mpk, Day 3, 100 mg/kg): -47.5685 and -54.3695 and -24.8553 and -40.1965 and -49.3407
Lp(a) ([1]; 100mpk, Day 5, 4hr, 100 mg/kg): 41.338 and 90.201 and 17.421 and 23.304 and 43.695
pCFB (Lp(a) pct_chng_from_baseline) ([1]; 100mpk, Day 5, 100 mg/kg): -32.6873 and -44.6654 and -53.9146 and -29.335 and -34.9039
Lp(a) ([1]; 100mpk, Day 9, 4hr, 100 mg/kg): 23.771 and 69.54 and 11.012 and 15.587 and 35.753
pCFB (Lp(a) pct_chng_from_baseline) ([1]; 100mpk, Day 9, 100 mg/kg): -48.1056 and -65.0224 and -69.1755 and -42.1791 and -62.5671
Lp(a) ([1]; 100mpk, Day 14, 4hr, 100 mg/kg): 22.568 and 43.526 and 4.973 and 14.913 and 14.296
pCFB (Lp(a) pct_chng_from_baseline) ([1]; 100mpk, Day 14, 100 mg/kg): -67.5186 and -84.2042 and -70.5084 and -76.88 and -64.4615
reduction of median Lp(a) levels compared with baseline ([1]; cynomolgus monkeys, 100 mg kg^−1 QD): up to 71%
